From patent publication US20200017495A1, “NOVEL HETEROCYCLIC COMPOUNDS AND THEIR USE IN PREVENTING OR TREATING BACTERIAL INFECTIONS” (priority 2017, published 2020)

Assays:
Format in all cases: cell-based
[1] = system: Proteus mirabilis (PMI) isolates; test: microbe, parasite or virus in culture
Procedure: Method 2: MIC of Compounds Alone and Combined with Antibacterials Against Bacterial Isolates
Compounds of the present invention were assessed against genotyped bacterial strains (Table 3, 4) alone or in combination with an antibacterial (Table 2). […] Log phase bacterial suspensions were adjusted to a final density of 5.10^5 CFU/mL in cation-adjusted Mueller-Hinton broth (ca-MHB; Becton-Dickinson and Company) and added to each well (98 μL). Microplates were incubated for 16-20 h at 35° C. in ambient air. The MIC of the compounds was defined as the lowest concentration of said compounds that prevented bacterial growth as read by visual inspection. The MIC of ATB at each compound concentration was defined as the lowest concentration of ATB that prevented bacterial growth as read by visual inspection.

[2] = system: Enterobacter aerogenes (EAE) isolates; test: MIC of compounds alone and combined with antibacterials, broth microdilution (CLSI)
In short: (§1)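 Log-phase isolates were inoculated at a final 5.10^5 CFU/mL in cation-adjusted Mueller-Hinton broth and incubated 16-20 h at 35° C in ambient air. MIC was the lowest concentration preventing visible growth; for combinations, the antibacterial MIC was read at each compound concentration.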

[3] = system: Serratia marcescens (SMA) isolates; test: as above
In short: as §1

[4] = system: Enterobacter cloacae (ECL) isolates; test: as above
In short: as §1

**Q.** How did the MIC ([1]; strain PMI UFR82, genotype CMY-2) turn out when `CO/N=C(\C(=O)N[C@@H]1C(=O)N2C(C(=O)O)=C(COC(N)=O)CS[C@H]12)c1ccco1` [FUR, Cefuroxime] was run?
**A.** 16 µg/mL

**Q.** And the MIC ([1]; strain PMI UFR120, genotype TEM-1, SHV-11, CTX-M-14)?
**A.** >256 µg/mL

**Q.** What about the MIC ([1]; strain PMI UFR121, genotype TEM-1, TEM-52) of the same compound?
**A.** >256 µg/mL

**Q.** What about the MIC ([1]; strain PMI UFR122, genotype TEM-1, CTX-M-15) of the same compound?
**A.** >256 µg/mL

**Q.** And the MIC ([1]; strain PMI UFR123, genotype CTX-M-1)?
**A.** >256 µg/mL

**Q.** What about the MIC ([1]; strain PMI UFR124, genotype CTX-M-2) of the same compound?
**A.** >256 µg/mL

**Q.** And the MIC ([1]; strain PMI UFR125, genotype CTX-M-71)?
**A.** >256 µg/mL

**Q.** What about the MIC ([1]; strain PMI UFR126, genotype TEM-2, PER-1) of the same compound?
**A.** >256 µg/mL

**Q.** What about the MIC ([1]; strain PMI UFR127, genotype VEB-1) of the same compound?
**A.** >256 µg/mL

**Q.** And the MIC ([1]; strain PMI UFR129, genotype TEM-1, VEB-6)?
**A.** >256 µg/mL

**Q.** And the MIC ([1]; strain PMI UFR130, genotype CMY-2)?
**A.** 8 µg/mL

**Q.** What about the MIC ([1]; strain PMI UFR237, genotype VEB-6) of the same compound?
**A.** >256 µg/mL

**Q.** What about the MIC ([2]; strain EAE 49469, genotype AmpC) of the same compound?
**A.** >128 µg/mL

**Q.** And the MIC ([2]; strain EAE 200261, genotype TEM-x, AmpC)?
**A.** >256 µg/mL

**Q.** And the MIC ([2]; strain EAE UFR199, genotype TEM-1b, SHV-12, KPC-2, OXA-9)?
**A.** >256 µg/mL

**Q.** What about the MIC ([2]; strain EAE UFR201, genotype TEM-1, SHV-12, CTX-M-15) of the same compound?
**A.** >256 µg/mL

**Q.** What about the MIC ([2]; strain EAE UFR202, genotype TEM-24) of the same compound?
**A.** >256 µg/mL

**Q.** What about the MIC ([2]; strain EAE UFR213, genotype TEM-24) of the same compound?
**A.** >256 µg/mL

**Q.** What about the MIC ([3]; strain SMA UFR30, genotype OXA-405) of the same compound?
**A.** >256 µg/mL

**Q.** What about the MIC ([3]; strain SMA UFR134, genotype TEM-1, BES-1) of the same compound?
**A.** >256 µg/mL

**Q.** And the MIC ([3]; strain SMA UFR135, genotype TEM-1, KPC-2)?
**A.** >256 µg/mL

**Q.** What about the MIC ([3]; strain SMA UFR136, genotype TEM-1, SHV-12, KPC-2) of the same compound?
**A.** >256 µg/mL

**Q.** What about the MIC ([3]; strain SMA UFR137, genotype SME-1) of the same compound?
**A.** 256 µg/mL

**Q.** And the MIC ([3]; strain SMA UFR138, genotype SME-1)?
**A.** 256 µg/mL

**Q.** What about the MIC ([3]; strain SMA UFR139, genotype SME-2) of the same compound?
**A.** >256 µg/mL

**Q.** What about the MIC ([3]; strain SMA UFR141, genotype OXA-48) of the same compound?
**A.** >256 µg/mL

**Q.** What about the MIC ([3]; strain SMA UFR142, genotype OXA-48) of the same compound?
**A.** >256 µg/mL

**Q.** And the MIC ([3]; strain SMA UFR143, genotype CTX-M-15, OXA-1, OXA-48)?
**A.** >256 µg/mL

**Q.** What about the MIC ([3]; strain SMA UFR238, genotype OXA-48) of the same compound?
**A.** >256 µg/mL

**Q.** What about the MIC ([3]; strain SMA UFR239, genotype ESAC) of the same compound?
**A.** 256 µg/mL

**Q.** And the MIC ([4]; strain ECL 2185D, genotype OXA-163)?
**A.** >256 µg/mL

**Q.** And the MIC ([4]; strain ECL 190310, genotype AmpC)?
**A.** >256 µg/mL

**Q.** And the MIC ([4]; strain ECL 190408, genotype TEM-1, CTX-M-15, OXA-1)?
**A.** >256 µg/mL

**Q.** And the MIC ([4]; strain ECL 200138, genotype AmpC)?
**A.** >256 µg/mL

**Q.** What about the MIC ([4]; strain ECL 200322, genotype TEM-1, CTX-M-15, OXA-1) of the same compound?
**A.** >256 µg/mL

**Q.** And the MIC ([4]; strain ECL 260033, genotype AmpC)?
**A.** >256 µg/mL

**Q.** And the MIC ([4]; strain ECL 260253, genotype TEM-1, KPC-3)?
**A.** >256 µg/mL

**Q.** And the MIC ([4]; strain ECL 260323, genotype AmpC)?
**A.** >256 µg/mL

**Q.** And the MIC ([4]; strain ECL 260508, genotype TEM-1, CTX-M-15)?
**A.** >256 µg/mL

**Q.** What about the MIC ([4]; strain ECL NEM146383, genotype AmpC) of the same compound?
**A.** >256 µg/mL

**Q.** What about the MIC ([4]; strain ECL P99, genotype AmpC) of the same compound?
**A.** >512 µg/mL

**Q.** What about the MIC ([4]; strain ECL UFR12, genotype CTX-M-9, OXA-48) of the same compound?
**A.** >256 µg/mL

**Q.** What about the MIC ([4]; strain ECL UFR13, genotype TEM-1, SHV-12, CTX-M-9, OXA-48) of the same compound?
**A.** >256 µg/mL

**Q.** What about the MIC ([4]; strain ECL UFR14, genotype TEM-1, SHV-12, CTX-M-15, DHA-1, OXA-1, OXA-48) of the same compound?
**A.** >256 µg/mL

**Q.** What about the MIC ([4]; strain ECL UFR60, genotype TEM-1, CTX-M-15, KPC-2) of the same compound?
**A.** >256 µg/mL

**Q.** What about the MIC ([4]; strain ECL UFR70, genotype TEM-1, CTX-M-15, CMY-2, OXA-1, Porin loss) of the same compound?
**A.** >256 µg/mL

**Q.** What about the MIC ([4]; strain ECL UFR84, genotype TEM-1, AmpC, OXA-1) of the same compound?
**A.** >256 µg/mL

**Q.** And the MIC ([4]; strain ECL UFR85, genotype TEM-1, CTX-M-15, AmpC)?
**A.** >256 µg/mL

**Q.** And the MIC ([4]; strain ECL UFR194, genotype OXA-48)?
**A.** 32 µg/mL

**Q.** And the MIC ([4]; strain ECL UFR195, genotype TEM-1, CTX-M-15, OXA-1, OXA-48)?
**A.** >256 µg/mL

**Q.** What about the MIC ([4]; strain ECL UFR196, genotype TEM-1, CTX-M-15, OXA-1, OXA-48) of the same compound?
**A.** >256 µg/mL

**Q.** And the MIC ([4]; strain ECL UFR197, genotype TEM-1, CTX-M-15, OXA-1, OXA-48)?
**A.** >256 µg/mL

**Q.** And the MIC ([4]; strain ECL UFR198, genotype TEM-1, SHV-12, CTX-M-15, DHA-1, OXA-1, OXA-48)?
**A.** >256 µg/mL

**Q.** And the MIC ([4]; strain ECL UFR200, genotype TEM-1, SHV-12, KPC-2)?
**A.** >256 µg/mL
